target: T1, human IKK-β (Homo sapiens, UniProt O14920); assay: IKK-β kinase inhibitory assay; assay type: biochemical; settings: compounds as yielded by solid phase synthesis, purity about 40 to 90%, read-out: In vitro activity grade (In vitro IC50)
T1 construct: A cDNA fragment encoding human IKK-β open reading frame was generated by PCR; His tag (from pcDNA3.1/His C); made in house; host or cells: Sf21 insect cells (baculovirus); substrate made in E. coli
T1 sequence (O14920 1-756): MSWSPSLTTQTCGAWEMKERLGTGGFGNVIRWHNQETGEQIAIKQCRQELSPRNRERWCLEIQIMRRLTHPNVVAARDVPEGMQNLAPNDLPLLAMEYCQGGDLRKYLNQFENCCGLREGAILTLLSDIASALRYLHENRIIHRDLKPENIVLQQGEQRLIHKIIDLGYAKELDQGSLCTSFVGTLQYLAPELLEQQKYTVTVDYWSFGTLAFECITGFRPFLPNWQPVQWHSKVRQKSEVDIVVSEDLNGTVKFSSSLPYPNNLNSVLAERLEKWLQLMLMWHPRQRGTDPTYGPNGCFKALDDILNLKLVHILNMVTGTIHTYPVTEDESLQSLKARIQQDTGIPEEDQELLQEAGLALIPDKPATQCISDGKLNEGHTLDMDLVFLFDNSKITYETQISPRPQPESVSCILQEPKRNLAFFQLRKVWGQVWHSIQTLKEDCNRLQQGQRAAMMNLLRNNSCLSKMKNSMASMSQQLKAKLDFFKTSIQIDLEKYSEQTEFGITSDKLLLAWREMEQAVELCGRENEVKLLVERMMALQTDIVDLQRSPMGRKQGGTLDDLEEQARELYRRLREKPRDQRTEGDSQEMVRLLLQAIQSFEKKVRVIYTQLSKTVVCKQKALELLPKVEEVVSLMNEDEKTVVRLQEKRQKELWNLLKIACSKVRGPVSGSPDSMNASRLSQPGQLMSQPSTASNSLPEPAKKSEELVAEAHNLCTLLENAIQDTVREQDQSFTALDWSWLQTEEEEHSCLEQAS
Procedure, shortened: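 His-tagged human IKK-β from baculovirus-infected Sf21 cells (0.6 μg/ml final) phosphorylates biotinylated GST-IκBα(1-54) (0.2 μM) in Tris-HCl pH 7.6 buffer with MgCl2. ATP with [γ-33P]ATP added, then 2 h at room temperature. Biotinylated substrate captured on streptavidin plates; bound radioactivity counted by scintillation.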

Compound | IC50 [nM]
N#Cc1c(C2CCCNC2)cc(-c2c(O)cccc2OCc2ccc(Cl)c(Cl)c2)nc1N (stereo not drawn) [Example 2-05] | < 500
Cc1ccccc1COc1cccc(O)c1-c1cc(C2CCCNC2)c(C#N)c(N)n1 (stereo not drawn) [Example 2-06] | < 500
N#Cc1c(C2CCCNC2)cc(-c2c(O)cccc2OCc2ccccc2-c2ccccc2)nc1N (stereo not drawn) [Example 2-22] | < 500
N#Cc1c(C2CCNCC2)cc(-c2c(O)cccc2OCc2ccccc2)nc1N [Example 2-23] | < 500
N#Cc1c(C2CCCNC2)cc(-c2c(O)cccc2OCc2ccc(Br)cc2)nc1N (stereo not drawn) [Example 2-24] | < 500
N#Cc1c(C2CCCNC2)cc(-c2c(O)cccc2OCc2ccccc2F)nc1N (stereo not drawn) [Example 2-25] | < 500
N#Cc1c(C2CCCNC2)cc(-c2c(O)cccc2OCc2ccc(F)cc2F)nc1N (stereo not drawn) [Example 2-26] | < 500
N#Cc1c(C2CCCNC2)cc(-c2c(O)cccc2OCc2cccc(F)c2)nc1N (stereo not drawn) [Example 2-27] | < 500
N#Cc1c(C2CCCNC2)cc(-c2c(O)cccc2OCc2ccc(F)cc2)nc1N (stereo not drawn) [Example 2-28] | < 500
N#Cc1c(C2CCCNC2)cc(-c2c(O)cccc2OCc2ccc(F)c(F)c2)nc1N (stereo not drawn) [Example 2-29] | < 500
COC(=O)c1ccc(COc2cccc(O)c2-c2cc(C3CCCNC3)c(C#N)c(N)n2)cc1 (stereo not drawn) [Example 2-30] | < 500
CC(C)(C)c1ccc(COc2cccc(O)c2-c2cc(C3CCCNC3)c(C#N)c(N)n2)cc1 (stereo not drawn) [Example 2-31] | < 500
N#Cc1c(C2CCCNC2)cc(-c2c(O)cccc2OCc2cccc3ccccc23)nc1N (stereo not drawn) [Example 2-32] | < 500
N#Cc1c(C2CCCNC2)cc(-c2c(O)cccc2OCc2ccc(-c3ccccc3)cc2)nc1N (stereo not drawn) [Example 2-33] | < 500
N#Cc1c(C2CCCNC2)cc(-c2c(O)cccc2OCc2ccc(Cl)cc2Cl)nc1N (stereo not drawn) [Example 2-34] | < 500
Cc1ccc(COc2cccc(O)c2-c2cc(C3CCCNC3)c(C#N)c(N)n2)cc1 (stereo not drawn) [Example 2-35] | < 500
N#Cc1c(C2CCCNC2)cc(-c2c(O)cccc2OCc2ccc(C(F)(F)F)cc2)nc1N (stereo not drawn) [Example 2-36] | < 500
N#Cc1c(C2CCCNC2)cc(-c2c(O)cccc2OCc2ccccc2F)nc1N (stereo not drawn) [Example 2-37] | < 500
COC(=O)c1ccc(COc2cccc(O)c2-c2cc(C3CCCNC3)c(C#N)c(N)n2)cc1 (stereo not drawn) [Example 2-38] | < 500
N#Cc1c(C2CCCNC2)cc(-c2c(O)cccc2OCc2ccc(Br)cc2)nc1N (stereo not drawn) [Example 2-39] | < 500
N#Cc1c(CCN)cc(-c2c(O)cccc2OCc2ccccc2)nc1N [Example 2-40] | < 500
N#Cc1c(C2CCCNC2)cc(-c2c(O)cccc2OCCc2ccccc2)nc1N (stereo not drawn) [Example 2-41] | < 500
N#Cc1c(C2CCCNC2)cc(-c2c(O)cccc2OCc2ccccn2)nc1N (stereo not drawn) [Example 2-42] | < 500
N#Cc1c(C2CCCNC2)cc(-c2c(O)cccc2OCc2cccnc2)nc1N (stereo not drawn) [Example 2-43] | < 500

Compound | IC50 [nM]
N#Cc1c(C2CCCNC2)cc(-c2c(O)cccc2OCc2ccncc2)nc1N (stereo not drawn) [Example 2-44] | < 500
N#Cc1c(C2CCCNC2)cc(-c2c(O)cccc2OCc2ccc3ccccc3n2)nc1N (stereo not drawn) [Example 2-45] | < 500
N#Cc1c(C2CCCNC2)cc(-c2c(O)cccc2OCCC(c2ccccc2)c2ccccc2)nc1N (stereo not drawn) [Example 2-46] | < 500
N#Cc1c(C2CCCNC2)cc(-c2c(O)cccc2OCc2csc3ccc(Cl)cc23)nc1N (stereo not drawn) [Example 2-47] | < 500
N#Cc1c(C2CCCNC2)cc(-c2c(O)cccc2OCc2ncon2)nc1N (stereo not drawn) [Example 2-48] | < 500
Cc1cc(COc2cccc(O)c2-c2cc(C3CCCNC3)c(C#N)c(N)n2)no1 (stereo not drawn) [Example 2-49] | < 500
N#Cc1c(C2CCCNC2)cc(-c2c(O)cccc2OCCCc2ccccc2)nc1N (stereo not drawn) [Example 2-50] | < 500
N#Cc1c(C2CCCNC2)cc(-c2c(O)cccc2OCC(=O)c2ccccc2)nc1N (stereo not drawn) [Example 2-51] | < 500
N#Cc1c(C2CCNCC2)cc(-c2c(O)cccc2OCCc2ccccc2)nc1N [Example 2-52] | < 500
N#Cc1c(C2CCCNC2)cc(-c2c(O)cccc2OCC2CCCCC2)nc1N (stereo not drawn) [Example 2-53] | < 500
CC(C)Oc1cccc(O)c1-c1cc(C2CCCNC2)c(C#N)c(N)n1 (stereo not drawn) [Example 2-54] | < 500
CCCOc1cccc(O)c1-c1cc(C2CCCNC2)c(C#N)c(N)n1 (stereo not drawn) [Example 2-55] | < 500
C=CCOc1cccc(O)c1-c1cc(C2CCCNC2)c(C#N)c(N)n1 (stereo not drawn) [Example 2-56] | < 500
COc1cccc(O)c1-c1cc(C2CCCNC2)c(C#N)c(N)n1 (stereo not drawn) [Example 2-57] | < 500
CCOc1cccc(O)c1-c1cc(C2CCCNC2)c(C#N)c(N)n1 (stereo not drawn) [Example 2-58] | < 500
CC(C)COc1cccc(O)c1-c1cc(C2CCCNC2)c(C#N)c(N)n1 (stereo not drawn) [Example 2-59] | < 500
CCCCCOc1cccc(O)c1-c1cc(C2CCCNC2)c(C#N)c(N)n1 (stereo not drawn) [Example 2-60] | < 500
CN1CCCC(c2cc(-c3ccccc3O)nc(N)c2C#N)C1 (stereo not drawn) [Example 3-03] | < 500
CCCN1CCCC(c2cc(-c3ccccc3O)nc(N)c2C#N)C1 (stereo not drawn) [Example 3-04] | < 500
N#Cc1c(C2CCCN(Cc3ccccc3)C2)cc(-c2ccccc2O)nc1N (stereo not drawn) [Example 3-05] | < 500
N#Cc1c(C2CCCN(CCc3ccccc3)C2)cc(-c2ccccc2O)nc1N (stereo not drawn) [Example 3-06] | 500 to 2000
COc1ccc(CN2CCCC(c3cc(-c4c(O)cccc4O)nc(N)c3C#N)C2)cc1 (stereo not drawn) [Example 3-07] | < 500
COc1ccc(CN2CCCC(c3cc(-c4c(O)cccc4OCC4CC4)nc(N)c3C#N)C2)cc1 (stereo not drawn) [Example 3-08] | 2000 to 10000
Nc1nc(-c2c(O)cccc2OCc2ccccc2)cc(C2CCCNC2)c1CO (stereo not drawn) [Example 12-02] | < 500

Compound | IC50 [nM]
CCCOc1cccc(O)c1-c1cc(C2CCCNC2)c(CO)c(N)n1 (stereo not drawn) [Example 12-03] | < 500
CC(C)(C)COc1cccc(O)c1-c1cc(C2CCCNC2)c(CO)c(N)n1 (stereo not drawn) [Example 12-04] | < 500
Nc1nc(-c2c(O)cccc2OCC2CC2)cc(C2CCNCC2)c1CO [Example 12-05] | < 500
CCCOc1cccc(O)c1-c1cc(C2CCNCC2)c(CO)c(N)n1 [Example 12-06] | < 500
CC(C)CCCOc1cccc(O)c1-c1cc(C2CCNCC2)c(CO)c(N)n1 [Example 12-07] | < 500
O=C1Nc2nc(-c3c(O)cccc3F)cc(C3CCCNC3)c2CO1 (stereo not drawn) [Example 18-07] | < 500
O=C1Nc2nc(-c3ncccc3O)cc(C3CCCNC3)c2CO1 (stereo not drawn) [Example 18-08] | < 500
Cc1cc(-c2c(O)cccc2OCC2CC2)nc2c1COC(=O)N2 [Example 18-09] | 2000 to 10000
O=C1Nc2nc(-c3c(O)cccc3OCc3ccccc3)cc(C3CCCNC3)c2CO1 (stereo not drawn) [Example 18-10] | < 500
CCCOc1cccc(O)c1-c1cc(C2CCCNC2)c2c(n1)NC(=O)OC2 (stereo not drawn) [Example 18-11] | < 500
O=C1Nc2nc(-c3c(O)cccc3O)cc(C3CCNCC3)c2CO1 [Example 18-12] | 500 to 2000
O=C1Nc2nc(-c3c(O)cccc3OCC3CC3)cc(C3CCNCC3)c2CO1 [Example 18-13] | < 500
CCCOc1cccc(O)c1-c1cc(C2CCNCC2)c2c(n1)NC(=O)OC2 [Example 18-14] | < 500
CC(C)CCCOc1cccc(O)c1-c1cc(C2CCNCC2)c2c(n1)NC(=O)OC2 [Example 18-15] | < 500
O=C1Nc2nc(-c3c(O)cccc3OCc3ccccc3)cc(C3CCNCC3)c2CO1 [Example 18-16] | < 500
CC(=O)NCc1c(C2CCCNC2)cc(-c2ccccc2O)nc1N (stereo not drawn) [Example 23-04] | < 500
Nc1nc(-c2ccccc2O)cc(C2CCCNC2)c1CNC(=O)C1CC1 (stereo not drawn) [Example 23-05] | < 500
CCC(=O)NCc1c(C2CCCNC2)cc(-c2ccccc2O)nc1N (stereo not drawn) [Example 23-06] | 500 to 2000
CC(=O)NCc1c(C2CCNCC2)cc(-c2c(O)cccc2OCC2CC2)nc1N [Example 23-07] | < 500
CC(C)OC(=O)NCc1c(C2CCCNC2)cc(-c2c(O)cccc2OCC2CC2)nc1N (stereo not drawn) [Example 23-08] | < 500
CC(C)COC(=O)NCc1c(C2CCCNC2)cc(-c2c(O)cccc2OCC2CC2)nc1N (stereo not drawn) [Example 23-09] | < 500
CC(C)(C)COC(=O)NCc1c(C2CCCNC2)cc(-c2c(O)cccc2OCC2CC2)nc1N (stereo not drawn) [Example 23-10] | < 500
CN(C)C(=O)NCc1c(C2CCCNC2)cc(-c2c(O)cccc2OCC2CC2)nc1N (stereo not drawn) [Example 23-11] | < 500
CCCNC(=O)NCc1c(C2CCCNC2)cc(-c2c(O)cccc2OCC2CC2)nc1N (stereo not drawn) [Example 23-12] | < 500

From patent publication US6984649B1, “Pyridine derivatives” (Bayer Aktiengesellschaft, priority 2000, dated 2006)
